{
  "source": "patent US8252814B2",
  "about": "“Agents and crystals for improving excretory potency of urinary bladder” (priority 1998, dated 2012)",
  "key": {"[1]": {"molecular_target": "T1, acetylcholinesterase of human erythrocyte origin (Homo sapiens, UniProt P22303)", "T1 construct": "Acetylcholinesterase of human erythrocyte origin (Sigma Chemical Co.); purchased Sigma Chemical Co; host or cells: human erythrocytes (natural source)", "T1 sequence (P22303 32-617 isoform P22303-2 limits assumed)": "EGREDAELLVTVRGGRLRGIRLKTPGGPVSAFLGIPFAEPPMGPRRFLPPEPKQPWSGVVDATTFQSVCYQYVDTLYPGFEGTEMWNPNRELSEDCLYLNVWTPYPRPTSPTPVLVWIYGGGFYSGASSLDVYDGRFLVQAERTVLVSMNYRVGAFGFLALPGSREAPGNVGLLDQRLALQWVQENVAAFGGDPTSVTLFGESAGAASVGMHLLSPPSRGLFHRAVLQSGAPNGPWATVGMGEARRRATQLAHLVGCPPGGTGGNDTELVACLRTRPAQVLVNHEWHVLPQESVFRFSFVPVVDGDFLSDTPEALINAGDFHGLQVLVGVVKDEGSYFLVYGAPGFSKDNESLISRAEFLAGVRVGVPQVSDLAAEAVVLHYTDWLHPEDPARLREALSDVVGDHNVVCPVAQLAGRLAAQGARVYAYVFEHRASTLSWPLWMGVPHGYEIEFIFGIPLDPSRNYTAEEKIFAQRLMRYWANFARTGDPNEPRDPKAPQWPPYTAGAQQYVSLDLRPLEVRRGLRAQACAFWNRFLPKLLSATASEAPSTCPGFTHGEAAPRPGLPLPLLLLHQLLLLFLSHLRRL", "assay": "Measurement of acetylcholinesterase-inhibiting action (acetylthiocholine / Ellman method), Experimental Example 1", "format": "biochemical", "conditions": "at least 3 experiments", "procedure": "Acetylcholinesterase-inhibiting action of the compounds disclosed in Reference Examples was measured using acetylcholinesterase of human erythrocyte origin according to the acetylthiocholine method (Ellman method).\nAcetylcholinesterase of human erythrocyte origin (Sigma Chemical Co.) was dissolved in distilled water at a concentration of 0.2 IU/mL to give an enzyme authentic sample. To a 96-well microplate was dispensed 20 μL of drug solution, 30 μL of 80 mM Tris-HCl (pH 7.4), 50 μL of enzyme authentic sample and 50 μL of 5 mM 5,5-dithio-bis(2-nitrobenzoic acid) (Sigma Chemical Co.), and the plate was shaken for 10 seconds. Then, 50 μL of acetylthiocholine iodide (Sigma Chemical Co.) was added, and the plate was again shaken. Immediately after shaking, increase of extinction at […] was measured at intervals of 30 seconds for 10 minutes. The enzyme activity was determined according to the following equation.\nThe experiment was repeated at least 3 times for each compound to obtain 50% inhibitory concentration (IC50). Moreover, in the same manner as mentioned above, acetylcholinesterase-inhibiting activity of distigmine was measured."}, "[2]": {"system": "urinary bladder", "assay": "Potentiation effect for rhythmic contraction of urinary bladder in guinea pig, Experimental Example 2", "format": "in vivo, Hartley male guinea pigs", "conditions": "Cavia porcellus, iv, read-out: AUC200 (mg/kg, i.v.)", "procedure": "Potentiation effect of the compounds disclosed in Reference Examples for rhythmic contraction of urinary bladder was examined using Hartley male guinea pigs. Hartley male guinea pigs (SLC) weighing about 300 g were anesthetized with urethane (1.2 g/kg, i.p.), held, and incised at the midline of abdomen to expose the bladder. The urethra was ligated, and a polyethylene tube (PE-50) was inserted into the bladder. The internal pressure of the bladder was measured with a blood pressure amplifier (Nippon Koden), and the data was collected on a personal computer through an A/D converter (MP-30, Biopac Systems). A proper amount of physiological saline was injected into the bladder through a cannula to induce rhythmic contraction of the to bladder.\nThe area (AUC) that is formed by a curve of the internal pressure of the bladder and a base line was calculated through analytical software (Studentlab pro 2.1.5, Biopac Systems) to evaluate the effect of the test compounds. The curve of the internal pressure is made based on the bladder contraction immediately before administration of the test compound and the first contraction 5 minutes after the administration. From the dose-dependent curve of AUC, the dose at which AUC before drug administration was increased 2 times (AUC200) was calculated to determine potency of contraction-enhancing effect of the test compounds for the muscle of urinary bladder. In addition, the potency of contraction-enhancing effect of […] for the muscle of bladder was determined in the same manner as mentioned above."}, "[3]": {"system": "guinea pigs", "assay": "Effect on urination efficiency in guinea pigs, Experimental Example 3", "format": "in vivo, Hartley male guinea pigs", "conditions": "for Efficiency of Urination (%) Before adm. / Efficiency of Urination (%) After adm. / Improvement of Efficiency (%): guinea pig; for Efficiency of Urination (%) Before adm.: before administration; for Efficiency of Urination (%) After adm. / Improvement of Efficiency (%): 30 minutes after administration", "excerpt": "Effect of the compounds of Reference Examples on urination efficiency was examined using Hartley male guinea pigs. Six to ten Hartley male guinea pigs weighing 346.5±3.5 g (SLC) were employed in each treated group. Guinea pigs were anesthetized with urethane, and held, and the bladder was exposed. Two polyethylene tubes (PE-50 and PE-100) were inserted into the bladder. One (PE-50) of the tubes was used in infusion of physiological saline, and the other (PE-100) was used for measurement of the internal pressure of the bladder. Saline was infused continuously at a flow rate of 0.3 mL/min. The infusion was stopped at the time when intermittent urination was confirmed at least 3 times, and the whole saline in bladder was removed. Again, infusion was started, and stopped at the time when a rise of the pressure in bladder was confirmed immediately before urination, and the time required for infusion and the weight of excreted urine were measured. Efficiency of urination was calculated from the following equation. Efficiency of urination (%)=100×Excreted volume (mL)/Infusion time (min)×0.3 (mL/min)\nMeasurement was made at least 2 times before administration of the test compound, and then the test compound was dissolved in distilled water and administered intravenously. […] Effect by administration of solvents was also confirmed.\nThe average measured value before administration of the test compounds was regarded as the value before administration, and applied to the paired-t test for a significant difference test with the value after the administration. (** p<0.01, * p<0.05)"}, "[4]": {"molecular_target": "T2, human erythrocyte-derived acetylcholine esterase (Homo sapiens, UniProt P22303)", "T2 construct": "Acetylcholinesterase of human erythrocyte origin (Sigma Chemical Co.); purchased Sigma Chemical Co; host or cells: human erythrocytes (natural source)", "T2 sequence (P22303 32-617 isoform P22303-2 limits assumed)": "as above", "assay": "Determination of the activity to inhibit the acetylcholine esterase of the crystals (Ellman method), Experimental Example 5", "format": "biochemical", "conditions": "at least three experiments", "procedure": "The activity to inhibit the acetylcholine esterase of the crystals obtained in Example 1 was determined according to the acetylthiocholine method (the Ellman method) by the use of a human erythrocyte-derived acetylcholine esterase.\nA human erythrocyte-derived acetylcholine esterase (Sigma Chemical Company) was dissolved into distilled water to obtain a standard enzyme preparation with an enzyme concentration of 0.2 IU/mL. […]\nThe activity to inhibit the acetylcholine esterase of the crystals obtained in Example 1 was determined according to the acetylthiocholine method (the ElIman method) by the use of a human erythrocyte-derived acetylcholine esterase.\nA human erythrocyte-derived acetylcholine esterase (Sigma Chemical Company) was dissolved into distilled water to obtain a standard enzyme preparation with an enzyme concentration of 0.2 IU/mL. […] As soon as 50 μl of a 4-mM solution of acetylthiocholine iodide (Sigma Chemical Company) was added and shaking was started again, every increment in absorbance at the wavelength of 414 nm at an interval of 30 seconds was determined for 10 minutes. R=5.74×10^−7×ΔA (wherein R indicates an enzyme activity (mol) and ΔA indicates an increment in absorbance at the wavelength of 414 nm). […] Furthermore, the activity to inhibit the acetylcholine esterase of distigmine was determined in a manner similar to that described in the above method."}},
  "note": "pIC50: −log10 of the molar value. Marks after values point to notes of the source that are not given here.",
  "data": [
    {"smiles": "CN(CCCCCCN(C)C(=O)Oc1ccc[n+](C)c1)C(=O)Oc1ccc[n+](C)c1", "note": "[Distigmine, reference compound]", "values": [
      {"measurement": "pIC50", "setting": "[1]", "result": 6.14},
      {"measurement": "ED (2-fold bladder contraction AUC)", "setting": "[2]", "result": 0.1, "unit": "mg/kg"},
      {"measurement": "improvement of urination efficiency (in words)", "setting": "[3]; conclusion from Table 7", "result": "poor and it makes the efficiency worse at a high dose"},
      {"measurement": "Efficiency of Urination (%) Before adm.", "setting": "[3]; 0.1 mg/kg i.v. group", "result": "79.1 ± 5.7", "unit": "%"},
      {"measurement": "Efficiency of Urination (%) After adm.", "setting": "[3]; 0.1 mg/kg i.v.", "result": "90.9 ± 2.7", "unit": "%"},
      {"measurement": "Improvement of Efficiency (%)", "setting": "[3]; 0.1 mg/kg i.v.", "result": 20.4, "unit": "%"},
      {"measurement": "Efficiency of Urination (%) Before adm.", "setting": "[3]; 0.3 mg/kg i.v. group (distigmine)", "result": "67.4 ± 4.3", "unit": "%"},
      {"measurement": "Efficiency of Urination (%) After adm.", "setting": "[3]; 0.3 mg/kg i.v.", "result": "75.3 ± 3.7", "unit": "%"},
      {"measurement": "Improvement of Efficiency (%)", "setting": "[3]; 0.3 mg/kg i.v.", "result": 14.7, "unit": "%"},
      {"measurement": "Efficiency of Urination (%) Before adm.", "setting": "[3]; 1 mg/kg i.v. group (distigmine)", "result": "78.6 ± 6.7", "unit": "%"},
      {"measurement": "Efficiency of Urination (%) After adm.", "setting": "[3]; 1 mg/kg i.v.", "result": "67.8 ± 4.6", "unit": "%"},
      {"measurement": "Improvement of Efficiency (%)", "setting": "[3]; 1 mg/kg i.v.", "result": "−11.6", "unit": "%"},
      {"measurement": "Efficiency of Urination (%) Before adm.", "setting": "[3]; 3 mg/kg i.v. group (distigmine)", "result": "68.6 ± 7.0", "unit": "%"},
      {"measurement": "Efficiency of Urination (%) After adm.", "setting": "[3]; 3 mg/kg i.v.", "result": "48.1 ± 8.5", "unit": "%"},
      {"measurement": "Improvement of Efficiency (%)", "setting": "[3]; 3 mg/kg i.v.", "result": "−30.9** %"},
      {"measurement": "pIC50", "setting": "[4]", "result": 6.19}
    ]}
  ]
}
